Data taken from patent US20130109581A1, “POSITIVELY CHARGED SPECIES AS BINDING REAGENTS IN THE SEPARATION OF PROTEIN AGGREGATES FROM MONOMERS” (priority 2009, published 2013).

Legend:
[1] = target: T1, AA-related moieties (serum amyloid A aggregates) (Mus musculus, UniProt P05367); experiment: PSR-1 bead-based capture of AA species from spleen homogenates; assay type: binding
T1 construct: These experiments indicate that PSR1-coated beads can capture AA-related moieties; from tissue; host or cells: spleen homogenate of mice with induced AA amyloidosis
Description: Amyloid enhancing factor (AEF) was extracted from amyloid-laden liver as described earlier, and used for amyloid induction in four different groups of mice. Each mouse received 20 ug of protein extract as an intravenous injection in the tail vein and systemic inflammation was stimulated by concomitant subcutaneous injection of 0.2 ml 1% silver nitrate (AgNO3). Further inflammatory stimuli were given once a week on day 7, 14 and 21. Mice were sacrificed in several time points on day 5, 9, 16 and 23. Control mice received only single silver nitrate injection and were sacrificed 16 hrs later.
10% spleen homogenates were prepared in PBS, […], using an ultra-sound tissue homogenizator. Homogenates were centrifuged at 200×g for 1 min and the supernatants were used for the PSR1 bead-based capture assay. For immunoblotting analysis the PBS-insoluble tissue pellet was solubilised in 8M urea for 24 hrs on a wheel at room temperature.
PSR1-conjugated beads were washed two times with 1 ml of TBS-TT (TBS, 1% TritonX, 1% Tween20) before incubation with 10% spleen homogenate in a total volume of 100 μl TBS-TT for 1 hr at 37° C. and under shaking at 750 rpm. […] 150 ul of eluate was aspirated from the beads and the presence of SAA/AA proteins were analysed using the mouse SAA ELISA from Tridelta Ltd. or by immunoblotting. […]

Abeta 1-40 monomer = target: T2, Abeta 1-40 monomer (Homo sapiens, UniProt P05067); experiment: Globulomer capture assay in CSF (Example 6): Abeta 1-40 noise; assay type: binding; conditions: Abeta 1-40 signal (noise), CSF samples
T2 construct: Abeta 1-40 monomer capture level; from tissue; host or cells: cerebrospinal fluid (matrix of the assay)
Description: A series of new potential aggregate-specific binding reagents were designed as shown below and conjugated onto magnetic Dynal M270 beads as described in Example 2. Typically 7-12 nmol of ligand (each candidate aggregate-specific binding reagent) was coated onto 1 mg of beads.
Aliquots of the beads (typically 3 ul) were added to wells of a 96 well plate, followed by sample (with or without Abeta 1-42 globulomer (an Abeta42 oligomer model) spiked in 80:20 CSF:TBSTT, typically 125 ul). The plate was sealed and incubated for 1 hour at 37° C. with shaking. The plate was washed with aqueous solutions of detergent (typically polyethylene glycol sorbitan monolaurate and n-tetradecyl-N,N-dimethyl-3-ammonio-1-propanesulfonate) to remove ubound material and the residual buffer removed. A denaturing solution (typically 0.1-0.15 N NaOH) was added to each well and the plate heated to 80° C. for 30 min with shaking. After cooling the plate to room temperature, a neutralizing buffer (typically 0.12-0.18 M NaH2PO3 in 0.4% TWEEN20,) was added and the plate was shaken briefly at room temperature. The bead eluate was analyzed using either an Aβ42-specific ELISA or the MSD® 96-Well MULTI-SPOT® Human/Rodent [4G8] Abeta Triplex Ultra-Sensitive Assay from Meso Scale Discovery (Gaithersburg, Md.). For the Aβ42-specific assay, the samples were eluted from the beads and a detection antibody (4G8 HRP) was added to a plate bearing the Aβ42-specific antibody 12F4. The plate was incubated for 1 hour, washed, the substrate was added (SuperSignal West Femto Maximum Sensitivity Substrate from Thermo Fisher, Rockville, Md.), and the luminescence was measured. The MSD plate assay was performed in a similar fashion, according to the manufacturer's protocol.
In this experiment the preferred number of charges within a given scaffold was identified. An Ala/Lys peptide framework was utilized, where the inclusion of each Lys residue increases the peptides' net charge by +1. Six hexapeptides with increasing charge (+1→+6), AAAKAA, AAKKAA, AAKKKA, AKKKKA, AKKKKK, and KKKKKK, were prepared and conjugated on the beads. The ability of these beads to capture Abeta 1-42 globulomer spiked at 1 ng/mL into CSF was tested, and the result is shown in FIG. 25. The globulomer capture level (“42 1 ng/ml” or the closed bars) was compared to the background signal of Abeta 1-42 detected in the unspiked CSF (“42 0 ng/ml”) and the background signal of Abeta 1-40 detected in unspiked CSF (“40 0 ng/ml”) or CSF spiked with AB42 oligomers “40 1 ng/ml”. The charge density, as conjugated to the magnetic beads, of each reagent evaluated in this experiment is shown below in Table 8.

T1 sequence (P05367 20-94 limits assumed): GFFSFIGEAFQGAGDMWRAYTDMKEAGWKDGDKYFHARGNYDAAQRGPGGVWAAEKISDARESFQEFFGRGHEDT
T2 sequence (P05067 672-711 limits assumed): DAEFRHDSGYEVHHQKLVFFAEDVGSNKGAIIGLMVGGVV

Nab-Nab-Nab-Nbn-Nab-Nbn [PSR1]
SAA detected in eluates (sandwich ELISA) ([1]; 3 uL PSR1 beads, spleen homogenate with splenic AA vs untreated control): SAA could be detected only in the eluates from the AA-containing sample | SAA detected in eluates after denaturation of input ([1]; denatured, buffered and undenatured AA-containing samples, FIG. 44): SAA could be detected only in the eluates from undenatured or buffered AA-containing samples | 40, 1 ng/ml average reading (Abeta 1-40 monomer): 234.5 RLUs
